According to US9763894B2, “Inflammation therapy” (Virginia Commonwealth University, priority 2006, dated 2017):
“Also recorded” adds a separate entry of the source.

Legend:
human CB2 receptor [1] = target: T1, human CB2 receptor (Homo sapiens, UniProt P34972); experiment: 35S-GTPγS binding, CHO cells expressing human CB2 receptor; assay type: biochemical
T1 construct: expressed in transfected cells
Procedure: (§1) (Martin et al. 2002; Wiley et al. 2002) CB1 and CB2 receptor affinities were determined using ^3H-CP 55,940 binding to rat brain membranes and to Chinese Hamster Ovary (CHO) cells stably expressing the human CB2 receptor, respectively. In vitro functional activity was determined in these same preparations using ^35S-GTPγS binding. For in vivo behavioural effects, mice were injected intravenously with the drugs prepared in ethanol:emulphor:saline (1:1:18). The mice were evaluated for locomotor activity, analgesia, body temperature, and catalepsy. These behaviours are collectively referred to as the tetrad test and are indicative of CB1 receptor activity.

mice [2] = experiment: Tetrad test (locomotor activity, analgesia, body temperature, catalepsy), indicative of CB1 receptor activity; assay type: in vivo, mouse; conditions: i.v., doses up to 30 mg/kg
Procedure: The cerebral ischemia/reperfusion studies were carried out on 8 week old male C57BL/6 mice (weighing 23 to 27 g; Taconic N.Y.) and conducted in accordance with the guidelines approved by Institute for Animal Care and Use Committee at Temple University. The behavioural evaluation of the cannabinoid analogs was carried out in 8-week old ICR male mice weighing 23-27 g in accordance with the guidelines approved by the Institute for Animal Care and Use Committee at Virginia Commonwealth University.
as §1

C57BL/6 mice [3] = experiment: Regional cerebral blood flow (rCBF) during MCAO; assay type: in vivo, mouse; conditions: 1 mg/kg, 1 hour prior to occlusion, versus vehicle
Procedure: (§2) The animals were anesthetized with an intraperitoneal injection of Ketamine ([…])-Xylazine (20 mg/kg) mixture (1:1) at a dose of 1 ml/kg. Body temperature was maintained at […]° C. by a heating lamp and heating pad. Middle cerebral artery occlusion was achieved by the intraluminal filament methods. (Hata et al. 1998) Briefly, a midline neck incision was made under the operation microscope; the right common carotid artery (CCA), external carotid artery (ECA) and internal carotid artery (ICA) were isolated. The ECA was ligated with 6-0 silk suture distal from the ICA-ECA branch and then cut distal from ligated point. Another 6-0 silk suture was tied loosely around ECA at close to the origin at the CCA. A blunted 5-0 monofilament nylon suture coated with poly-L-lysine (0.1% in deionized water, Sigma) (Belayev et al. 1999) was introduced from a small incision on ECA and then advanced into the circle of Willis, and finally to the origin of the middle cerebral artery. The silk suture around the ECA stump was tied tightly to prevent bleeding and secure the nylon suture. The nylon suture was removed after 60 minutes occlusion and ECA was permanently tied. Reperfusion was confirmed when pulsations were again observed in ICA.
A laserPro Blood Perfusion Monitor (TSI Inc) was used to monitor regional cerebral blood flow (rCBF) prior to ischemia, during MCAO and reperfusion. […]

C57BL/6 mice [4] = experiment: Infarct volume after middle cerebral artery occlusion and reperfusion (MCAO/R); assay type: in vivo, mouse; conditions: 24 hours after MCAO
Procedure: as §2
The CB2 agonists (O-1966 and O-3853: described in Wiley et al and WO 03/091189, incorporated herein by reference, and the copending application of Razdan et al)) were dissolved in a pure ethanol:emulphor:saline mixed solution at 1:1:18. The CB2 agonists (1 mg/kg) or equal volume of vehicle were administered as an intravenous injection into the jugular vein 1 hour before MCAO or 10 minutes after reperfusion. The investigator was blinded with regard to whether the animals were members of vehicle or treatment groups during all experimental procedures and measurements.
Animals were euthanized with an overdose of pentobarbital (200 mg/kg i.p) 24 hours after MCAO and then the brains were removed. The brains were chilled in ice for 10 minutes to slightly harden the tissue. Five 2 mm coronal sections were cut using a mouse brain matrix (Zivic lab).The brain sections were placed in 2% triphenyltetrazolium chloride (TTC) (Sigma, Inc) dissolved in saline and stained for 20 minutes at 37° C. in the dark. The brain sections were then fixed in 4% paraformaldehyde at 4° C. for 24 hours and the anterior and caudal face of each section was scanned by a flatbed color scanner (Microtek Inc). The resulting images were captured as JPEG files (FIG. 2E) and analyzed with NIH image software. The infarct volumes were expressed as mm^3 as well as the percentage of the ipsilateral hemisphere.

C57BL/6 mice [5] = experiment: Neurological evaluation (five-point deficit score) after MCAO/R; assay type: in vivo, mouse; conditions: 24 hours post-ischemia
Procedure: as §2, with “The silk suture around the ECA stump was tied tightly to prevent bleeding and secure the nylon suture. The nylon suture was removed after 60 minutes occlusion and ECA was permanently tied. Reperfusion was confirmed when pulsations were again observed in ICA.” left out
The severity of neurological deficits was evaluated 24 hours after ischemic insult using a five-point deficit score (0=normal motor function; 1=flexion of torso and of contralateral forelimb upon lifting of the animal by tail; 2=circling to the contralateral side but normal posture at rest; 3=leaning to contralateral side at rest; and 4=no spontaneous motor activity) (Hata et al. 1998).

C57BL/6 mice [6] = experiment: Leukocyte/endothelial interactions by intravital microscopy through a cranial window in MCAO/R; assay type: in vivo, mouse; conditions: treatment 1 hour before MCAO
Procedure: On the day of cranial window implantation, the animals were anesthetized with an intraperitoneal injection of Ketamine (100 mg/ml)-Xylazine (20 mg/kg) mixture (1:1) at a dose of 1 ml/kg. The head was shaved and positioned in a stereotactic head holder. A 1 cm^2 area of skin on the dorsal surface of the skull over the right cortical hemisphere was excised and the periosteum was removed. A 4 mm diameter circular craniotomy was performed using a high speed drill (Champ-Air Dental Drill Benco Dental) over the right parietal cortex extending from attachment of the temporal muscle to midpoint of sagittal suture in the coronal direction and aligned to middle of the sagittal suture, so that the window contained some terminal branches of the middle cerebral artery. Normal saline was dripped over the cranium to avoid thermal injury of the cortex. […]
Leukocyte/endothelial interactions were evaluated before MCAO, 1 hour after MCAO and 24 hours after MCAO. […] Three venules (with diameter 30-50 μm) and three arterioles (with diameter 20-40 μm) in each animal were assessed. […] They were counted when they passed an arbitrary line perpendicular to the longitudinal axis of the vessel over a period of 30 seconds. […] Adhering leukocytes were scored as the number of cells per mm^2 of the vascular surface area, calculated from the diameter and standardized length (100 μm) of the vessel segment under investigation.

C57BL/6 mice [7] = experiment: Thoracic spinal cord injury (SCI) model; assay type: in vivo, mouse
Procedure: A thoracic spinal cord injury model was induced in female 6-8 week old C57BL/6 mice. Spinal cord CB2 mRNA expression was evaluated in sham animals and SCI animals 24 hours after injury by real time RT-PCR. Animals were randomized into two groups: the experimental group received intraperitoneal injections of a selective CB2 agonist (O-1966; 1 mg/kg) one hour before injury, 24 and 48 hours after injury; the control group received equal volumes of vehicle. Both groups were tested for motor function by using the Basso Mouse Scale for Locomotion (BMS) and the Basso, Beattie, Bresnahan Locomotor Rating Scale (BBB) on post-procedure days 1, 7, and 14. Urine mass was recorded twice daily to assess bladder recovery. The inflammatory cytokine TNF-α was measured by real time RT-PCR in both groups 24 hours after SCI.

CB1 receptor = target: T2, CB1 receptor (Rattus norvegicus, UniProt P20272); conditions: reported previously (Wiley et al. 2002); read-out: affinity for CB1 cannabinoid receptor; cited from earlier work
T2 construct: from tissue; host or cells: rat brain membranes
T2 sequence (P20272 whole entry): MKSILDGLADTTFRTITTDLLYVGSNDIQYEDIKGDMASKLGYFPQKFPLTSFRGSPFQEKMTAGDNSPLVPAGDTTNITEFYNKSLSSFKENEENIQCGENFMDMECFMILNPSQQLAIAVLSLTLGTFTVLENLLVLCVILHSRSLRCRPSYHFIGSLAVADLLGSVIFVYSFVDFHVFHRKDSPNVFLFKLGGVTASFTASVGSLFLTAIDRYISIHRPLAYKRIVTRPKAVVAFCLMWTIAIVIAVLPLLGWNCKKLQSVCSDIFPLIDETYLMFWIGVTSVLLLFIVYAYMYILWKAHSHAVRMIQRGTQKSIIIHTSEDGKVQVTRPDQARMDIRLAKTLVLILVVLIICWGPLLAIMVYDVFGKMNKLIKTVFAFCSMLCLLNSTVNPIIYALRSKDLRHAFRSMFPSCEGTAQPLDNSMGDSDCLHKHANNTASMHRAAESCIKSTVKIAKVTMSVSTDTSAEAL

human CB2 receptor [8] = target: T1, human CB2 receptor; conditions: reported previously (Wiley et al. 2002); read-out: affinity for CB2 cannabinoid receptor; cited from earlier work
mice [9] = conditions: reference CB1/CB2 agonist, all four measures; cited from earlier work
[10] = 1 mg/kg i.v. 10 minutes after reperfusion (post-reperfusion treatment)
[11] = 1 mg/kg i.v. 1 hour before MCAO (pre-ischemic treatment)

T1 sequence (P34972 whole entry): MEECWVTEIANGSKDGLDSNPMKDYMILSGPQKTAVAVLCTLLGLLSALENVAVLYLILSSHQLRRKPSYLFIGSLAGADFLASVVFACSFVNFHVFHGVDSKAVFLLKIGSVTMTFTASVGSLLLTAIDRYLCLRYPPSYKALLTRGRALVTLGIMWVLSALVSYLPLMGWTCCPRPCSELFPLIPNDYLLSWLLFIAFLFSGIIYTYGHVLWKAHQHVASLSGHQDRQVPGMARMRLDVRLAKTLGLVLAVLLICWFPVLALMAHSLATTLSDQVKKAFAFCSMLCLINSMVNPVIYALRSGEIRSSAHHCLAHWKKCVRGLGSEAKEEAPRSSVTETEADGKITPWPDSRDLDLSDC

Structure (SMILES) | EC50 (human CB2 receptor [1]; CHO cells with human CB2, read-out: EC50 for stimulating 35S-GTPγS binding (CB2)) | Emax (human CB2 receptor [1]; percent of maximal stimulation produced by the full agonist CP 55,940) | effects in the tetrad test (CB1 receptor-mediated behavioural effects) (mice [2]) | effect on rCBF during the 1 hour occlusion period (C57BL/6 mice [3]) | infarct volume (C57BL/6 mice [4]; [10]) | infarct volume as percentage of the ipsilateral hemisphere (C57BL/6 mice [4]; [10]) | infarct volume (C57BL/6 mice [4]; [11]) | infarct volume as percentage of the ipsilateral hemisphere (C57BL/6 mice [4]; [11]) | motor function score (C57BL/6 mice [5]; pretreatment 1 hour before MCAO, vehicle 3.25±0.20) | motor function (C57BL/6 mice [5]; treatment during reperfusion) | leukocyte/endothelial interactions (C57BL/6 mice [6]) | motor function recovery (BMS and BBB) (C57BL/6 mice [7]; 1 mg/kg i.p. one hour before, 24 and 48 hours after injury, days 1, 7 and 14) | bladder function recovery rate (C57BL/6 mice [7]; 1 mg/kg i.p., 14th day after SCI, control group 14%) | TNF-α expression in the injured spinal cord (C57BL/6 mice [7]; real time RT-PCR, 24 hours after SCI, compared to control group) | Ki (CB1 receptor) | Ki (human CB2 receptor [8]) | ED50's in the four tetrad measures (mice [9])
CCCCCCC(C)(C)c1cc(OC)c(C2(O)CCCC(C)C2)c(OC)c1 (centres unmarked) [O-1966] | 70 ± 14 nM | 74 ± 5% | produced some modest behavioural effects only at doses that far exceeded those used in the MCAO/R studies; also recorded: failed to produce effects in the tetrad test | no effect on rCBF | 71.3±5.5 mm^3 | 27±2% | 65.6±4.0 mm^3 | 25±2.5% | 1.69±0.30 | significantly improved the motor function | attenuated leukocyte/endothelial interactions | better motor function recovery than the control group | 45% | decreased TNF-α expression | 5060 nM | 23 ± 2.1 nM | 
CCCCCc1cc(O)c2c(c1)OC(C)(C)[C@@H]1CCC(C)=C[C@@H]21 [Δ^9-tetrahydrocannabinol] |  |  |  |  |  |  |  |  |  |  |  |  |  |  |  |  | 1 to 2 mg/kg
